From patent US12454678B2, “Muscle differentiation-promoting actions of ergothioneine, ascorbic acid 2-glucoside, ascorbic acid, and combination thereof” (NAGASE & CO., LTD., priority 2018, dated 2025)

What was measured:
Format in all cases: cell-based
C2C12 cells = assay: Microscopic observation of muscle differentiation of C2C12 cells in differentiation medium; details: 0.5 mM EGT in differentiation medium, sixth day, vs control without EGT
Experimental: C2C12 cells were suspended in a 10% fetal calf serum-containing Dulbecco's modified Eagle's medium (hereinafter, called a growth medium) to adjust the cell density to 65×10^4 cells/ml. Then, 1.5 ml of the cell suspension was added to each well of a 6-well plate, and the cells were cultured in a 5% CO2 incubator for 24 hours. The growth medium was removed, and 2 ml of 2% horse serum-containing Dulbecco's modified Eagle's medium containing 0.5 mM EGT (hereinafter, called a differentiation medium) was then added to each well. The differentiation medium was exchanged for a new culture medium every other day, and the culture was continued. A control group was subjected to the exactly same operation except that EGT was not contained. The forms of the cells were observed and photographed through a microscope (NIKON CORPORATION: Eclipse Ts2) on the sixth day after exchange for the differentiation medium.

[1] = tested on: ACTA1 mRNA expression in C2C12 cells; assay: ACTA1 mRNA expression level of C2C12 cells (real time PCR, corrected by PPIA); details: for ACTA1 mRNA expression: procedure of Example 3, vs NT
Experimental: (§1) C2C12 cells were suspended in a growth medium to adjust the cell density to 65×10^4 cells/ml. Then, 1.5 ml of the cell suspension was added to each well of a 6-well plate, and the cells were cultured in a 5% CO2 incubator for 24 hours. The growth medium was removed, and 2 ml of a differentiation medium containing 0.5 mM EGT was added. A control group (NT) was subjected to the exactly same operation except that EGT was not contained. The culture medium was removed after 2 days, 1 ml of TRIzol (Invitrogen Corporation) was added to each well, and RNA was collected according to the protocol of TRIzol. The collected RNA was converted into complementary strand DNA with a reverse transcription kit (Takara Bio Inc.). The following primer DNAs (MyH2 [NM_001039545]: forward 5′[…]3′ (SEQ ID NO: 5), reverse 5′[…]3′ (SEQ ID NO: 6), ACTA1 [NM_001272041]: forward 5′[…]3′ (SEQ ID NO: 7), PPIA [NM_008907]: forward 5′[…]3′ (SEQ ID NO: 3), and reverse 5′[…]3′ (SEQ ID NO: 4)) were added to the obtained complementary strand DNA, and the gene expression levels of MyH2, ACTA1, and PPIA were measured by subjecting the mixture to a CFX96 Touch™ real time PCR analysis system (Bio-Rad Laboratories, Inc.) using TB Green™ Premix Ex Tag™ II (Takara Bio Inc.) according to the protocol thereof. Correction was performed by dividing the amounts of expressed MyH2 and ACTA1 mRNA by the amount of expressed PPIA mRNA to calculate the myosin heavy chain 2 (MyH2) and a actin (ACTA1) mRNA expression levels. […] The MyH2 mRNA and ACTA1 mRNA expression levels increased by adding EGT.
The amounts of MyH2 and ACTA1 mRNA expression of C2C12 cells when the differentiation medium containing only EGT was used, when the differentiation medium containing EGT and AG was used, and when the differentiation medium containing only AG was used were investigated. AA2G(R) produced by Hayashibara Co., Ltd. was used as AG. The concentration of EGT in the differentiation medium was 0.5 mM, and the concentration of AG was 1.0 mM. The experiment procedure was the same as that of Example 3. […]

[2] = tested on: MyH2 mRNA expression in C2C12 cells; assay: MyH2 mRNA expression level of C2C12 cells (real time PCR, corrected by PPIA); details: for MyH2 mRNA expression: procedure of Example 3, vs NT
Experimental: as §1
C2C12 cells were suspended in a growth medium to adjust the cell density to 65×10^4 cells/ml. Then, 1.5 ml of the cell suspension was added to each well of a 6-well plate, and the cells were cultured in a 5% CO2 incubator for 24 hours. The growth medium was removed, and 2 ml of a differentiation medium containing 0.5 mM EGT, 25 μM edaravone (hereinafter, abbreviated to Edv), or 50 μM Edv was added to each well. Edv is a powerful synthetic antioxidant. The culture medium was exchanged for a new culture medium every other day, and the culture was continued. A control group (NT) was subjected to the exactly same operation except that EGT was not contained. The culture medium was removed after 4 days, 1 ml of TRIzol (Invitrogen Corporation) was added to each well, and RNA was collected according to the protocol of TRIzol. The complementary strand DNA of the mRNA was obtained by treating the collected RNA with a reverse transcription kit (Takara Bio Inc.). The following primer DNAs (MyH2 [NM_001039545]: forward 5′[…]3′ (SEQ ID NO: 5), reverse 5′[…]3′ (SEQ ID NO: 6), PPIA [NM_008907]: forward 5′[…]3′ (SEQ ID NO: 3), and reverse 5′[…]3′ (SEQ ID NO: 4)) were added to the obtained complementary strand DNA, and the gene expression levels of MyH2 and PPIA were measured by subjecting the mixture to a CFX96 Touch™ real time PCR analysis system (Bio-Rad Laboratories, Inc.) using TB Green™ Premix Ex Tag™ II Kit (Takara Bio Inc.) according to the protocol thereof. Correction was performed by dividing the amount of expressed MyH2 mRNA by the amount of expressed PPIA mRNA to calculate the MyH2 mRNA expression level.
The amounts of MyH2 and ACTA1 mRNA expression of C2C12 cells when the differentiation medium containing only EGT was used, when the differentiation medium containing EGT and AG was used, and when the differentiation medium containing only AG was used were investigated. AA2G(R) produced by Hayashibara Co., Ltd. was used as AG. […]

[3] = tested on: MyoD mRNA expression in C2C12 cells; assay: MyoD mRNA expression level of C2C12 cells (real time PCR, corrected by PPIA); details: 0.1 mM or 0.5 mM EGT, after 2 days
Experimental: C2C12 cells were suspended in a growth medium to adjust the cell density to 65×10^4 cells/ml. Then, 1.5 ml of the cell suspension was added to each well of a 6-well plate, and the cells were cultured in a 5% CO2 incubator for 24 hours. The growth medium was removed, and 2 ml of a differentiation medium containing 0.1 mM or 0.5 mM EGT was then added to each well. A control group (hereinafter abbreviated to NT) was subjected to the exactly same operation except that EGT was not contained. The culture medium was removed after 2 days, 1 ml of TRIzol (Invitrogen Corporation) was added to each well, and the cells were dissolved. The cell solution was collected in an Eppendorf tube, and RNA was collected according to the protocol of TRIzol. The complementary strand DNA of the mRNA was obtained by treating the collected RNA with a reverse transcription kit (Takara Bio Inc.). The following primer DNAs (MyoD [NM_010866]: forward 5[…]3′ (SEQ ID NO: 1), reverse 5′[…]3′ (SEQ ID NO: 2), PPIA [NM_008907]: forward 5′[…]3′ (SEQ ID NO: 3), and reverse 5′[…]3′ (SEQ ID NO: 4)) were added to the obtained complementary strand DNA, and the gene expression levels of MyoD and PPIA were measured by subjecting the mixture to a CFX96 Touch™ real time PCR analysis system (Bio-Rad Laboratories, Inc.) using TB Green™ Premix Ex Taq™ II (Takara Bio Inc.) according to the protocol thereof. […]

C[N+](C)(C)[C@@H](Cc1c[nH]c(=S)[nH]1)C(=O)[O-] [EGT, Ergothioneine]
differentiation from C2C12 cells to muscle cells / myotube cell formation (C2C12 cells): more myotube cells were formed
ACTA1 mRNA expression level (relative to NT = 1) ([1]; 0.5 mM EGT, after 2 days): increased
MyH2 mRNA expression level (relative to NT = 1) ([2]; 0.5 mM EGT, after 2 days): increased
MyoD mRNA expression level (relative to NT = 1) [3]: increased depending on the concentration of EGT

O=C1O[C@H]([C@@H](O)CO)C(O)=C1O [VC, ascorbic acid]
ACTA1 mRNA expression ([1]; only VC, 0.5 mM): increased
MyH2 mRNA expression ([2]; only VC, 0.5 mM): increased

O=C1O[C@H]([C@@H](O)CO)C(O)=C1O[C@H]1O[C@H](CO)[C@@H](O)[C@H](O)[C@H]1O [AG, ascorbic acid 2-glucoside]
ACTA1 mRNA expression ([1]; only AG, 1.0 mM): increased
MyH2 mRNA expression ([2]; only AG, 1.0 mM): increased

CC1=NN(c2ccccc2)C(=O)C1 [Edv, edaravone, reference compound]
MyH2 mRNA expression level (relative to NT = 1) ([2]; 25 μM or 50 μM Edv, after 4 days): did not affect
MyH2 mRNA expression level (relative to NT = 1) ([2]; 25 μM or 50 μM Edv, after 4 days, listed as edaravone): does not influence
